From ChEMBL document CHEMBL3507680, “University of Dundee, Gates Library screen for HepG2 cell viability”

Assay: Human HepG2 cell viability assay in 384 well format
Format: toxicity, cell-based
Set-up: dose 125 nL, time 70.5 hour; cytotoxicity at 70.5 h: concentration not given beside the values
Details: HepG2 cells, read-out: Inhibition

Structure (SMILES) | cytotoxicity at 70.5 h
O=C(CCNC(=O)c1ccccc1)Nc1ccncc1 | -18%
CCOc1ccccc1OCCN(C)Cc1nccn1C | -5.37%
O=C1CCC2(CCN(CC[C@@H](O)c3ccccc3)CC2)CN1CC1CC1 | -5.97%
NC(=O)CCOc1nc(-c2ccccc2Cl)no1 | 16.5%
CCS(=O)(=O)N1CCn2c(COCC3CCOCC3)cnc2C1C (configuration not stated) | -5.13%
COc1ccc(CN2CCC3(CCCN(C)C3=O)C2)c(OC)c1C (configuration not stated) | -10.1%
CCCc1n[nH]c(C2CN(C(=O)c3cncnc3C)CCO2)n1 (configuration not stated) | 3.13%
Cc1nonc1CN1CC[C@@](O)(C2CCOCC2)[C@H](C)C1 | -11%
Cc1cc2ncn(C(=O)N3CCCC3)c2cc1C | -2.26%
Cc1cnn(CC2CCCN2C(=O)c2ccc3cc[nH]c3c2)c1 (configuration not stated) | 0.784%
CC(C)Cc1nc(OCC(N)=O)c(C#N)c2c1CCC2 | 14.5%
Cn1ccnc1CN(CCO)Cc1ccc(C(F)(F)F)cc1 | -6.45%
O=c1cc2c(nn1CN1CCN(c3ccccc3)CC1)CCCC2 | -15%
c1cc(CN2CCC(c3nnc4n3CCCCC4)CC2)c2c(c1)OCO2 | -5.9%
Cc1cccnc1C(Cc1ccsc1)NC(=O)Cn1cccnc1=O (configuration not stated) | -1.07%
Cc1nccn1-c1nccnc1C1CCCN(C2CCCC2)C1 (configuration not stated) | 14.2%
CC(C)c1nnc2n1CCN(C(=O)c1ccnc(-n3ccnc3)c1)C2 | 19.7%
O=C(Nc1cnc(N2CCOCC2)nc1)c1ccc(C(F)(F)F)cc1 | 6.8%
COCCN1CCC12CCN(C(=O)c1ccsc1)CC2 | -11.4%

Structure (SMILES) | cytotoxicity at 70.5 h
O=C([C@H]1CCCO1)N1CCC2(CC1)CNCc1ccccc12 | 8.83%
c1ccc2c(N3CCCCC3Cn3cncn3)ncnc2c1 (configuration not stated) | -9.62%
CCCc1cnc(C)nc1N1CCC2(CCCO2)CC1 | -1.28%
CN(C)c1ccc(NC(=O)NCc2cccs2)cn1 | -6.16%
Cc1ccc(C)c(Oc2ccc(CNC(=O)C3CCS(=O)(=O)C3)cn2)c1 (configuration not stated) | -10.1%
CCC(C)N(Cc1sccc1C)C(=O)c1cnc[nH]1 (configuration not stated) | -6.28%
CC(C)C1CN(S(C)(=O)=O)CCCN1Cc1ccc(F)cc1 (configuration not stated) | -3.17%
Cc1c[nH]c(CN2CC[C@@]3(O)CCN(C(=O)C4CCCC4)C[C@H]3C2)n1 | 19.2%
COc1cccc(OCCNS(C)(=O)=O)c1 | 1.43%
Cc1ccccc1C(=O)NC[C@@H]1CCN(C(=O)CN2CCCC2)C[C@H]1O | -5.06%
Cc1nc(CN2C[C@@H]3CN(C(=O)NC(C)C)C[C@@H]3C2=O)cs1 | -5.1%
O=C(N1CCOCC1)[C@@]12CCO[C@@H]1CCN(CCN1CCCCC1)C2 | -20.4%
Cc1cc(N2CCCC3(CN(C)C(=O)O3)C2)c2cc3c(cc2n1)OCO3 (configuration not stated) | 19.1%
Cn1cc(C(=O)N(Cc2ccco2)Cc2cccs2)ccc1=O | -8.8%
Cc1nnc(CN(Cc2ccc3c(c2)OCO3)C2CCCCC2)o1 | -2.59%
O=C(NC1CC1)[C@@H]1CCO[C@@H]2CCN(C3CCOCC3)C[C@@H]21 | -8.31%
CN(C)CCNC(=O)c1ccc(OC2CCN(C3CCC3)CC2)c(Cl)c1 | -5.59%
CN(Cc1nnc(C2CC2)n1C)C1CCN(CCc2cccs2)C1 (configuration not stated) | -6.98%
Cc1cc(CN(C)C(=O)C(c2cccnc2)N2CCOCC2)n[nH]1 (configuration not stated) | -10.1%

Structure (SMILES) | cytotoxicity at 70.5 h
COCCN1CCC2(CCC1=O)CN(c1ccnc(SC)n1)CCN2C (configuration not stated) | -4.09%
CC(C)OCCC(=O)N(C)CCCc1cc(-c2ccccc2)no1 | 42.3%
COCCN1C(=O)CC[C@]12CC[C@@H](NC(=O)c1cnccn1)CC2 | -2.82%
CCCc1nc(CNc2cc(CS(C)(=O)=O)ccc2Cl)no1 | -0.135%
Cc1cc2c(=O)n3c(nc2s1)CCN(Cc1c[nH]cn1)CC3 | 1%
CN(CCSc1ccccc1)C(=O)c1cn2c(n1)CNCC2 | -12.8%
O=C(C1CCOCC1)N1CCN2C(=O)N(Cc3ccc(F)cc3)C[C@H]2C1 | -3.96%
Cc1cnc(C)c(N2CCC(C(=O)O)(n3ccc(C(C)(C)C)n3)CC2)n1 | 30.8%
O=C(CN1CCOc2ccc(Cl)cc21)NCCCn1cccn1 | 9.56%
COCCn1ccc(NCc2cc3cc(F)ccc3o2)n1 | -6.3%
Cc1nn(C)c(N(C)C)c1CNCC(O)COc1ccc(F)cc1 (configuration not stated) | 2.45%
CN(C)CCN1C(=O)CCCC12CCCN(Cc1ccc[nH]1)C2 (configuration not stated) | 26%
CC1COCCN1C(=O)c1ccc(=O)n(Cc2ccccc2)n1 (configuration not stated) | -4.29%
Cc1cc(C)cc(CN2CCN(C(=O)C3CCC3)[C@@H]3CS(=O)(=O)C[C@@H]32)c1 | -5.88%
O=C(c1ccc2[nH]nnc2c1)N1CCCC(n2cccn2)C1 (configuration not stated) | -5.26%
Cc1ccc(CN2CCCC3(CCN(S(C)(=O)=O)C3)C2)o1 (configuration not stated) | -10.2%
Cc1n[nH]cc1CNC(=O)[C@H]1CCCCN1C(=O)OC(C)(C)C | 8.82%
O=C(NCc1cccnc1)c1ccc2nccn2c1 | 1.82%
CC(=O)N1CC2(CCN(C(=O)c3ccc4c(c3)OCCO4)CC2)C1 | 20.2%
